# Assay results published in article PMC3884022 (Journal of Hematology & Oncology, 2014).
# Key:
# [1] = Docetaxel PK samples (end of infusion), arm 2; assay type: in vivo, human; details: arm 2, IV docetaxel with MK-2206
# Procedure: For the Q3W schedule, samples were taken in cycle 1 on days 1 to 3 as per the QOD schedule, then on days 5, 7, 15, and in cycle 2 on day 1. Blood samples were collected predose and just before the end of the infusion for carboplatin, paclitaxel, and docetaxel for archival and possible PK analysis. Another sample was taken 30 minutes into the infusion of paclitaxel. These samples were archived for possible future analysis to investigate if any unexpected toxicities may have been as a result of a PK interaction.
# [2] = cited from earlier work
smiles,measurement,setting,value
CC(=O)O[C@@]12CO[C@@H]1C[C@H](O)[C@@]1(C)C(=O)[C@H](O)C3=C(C)[C@@H](OC(=O)[C@H](O)[C@@H](NC(=O)OC(C)(C)C)c4ccccc4)C[C@@](O)([C@@H](OC(=O)c4ccccc4)[C@H]21)C3(C)C [docetaxel],mean end-of-infusion concentration,[1],3.01 µg/mL
same,"mean end-of-infusion concentration, range of mean values in the literature",[2],1.68 to 4.06 µg/mL
